What all share (test): relative viability (nuclei count vs DMSO), 5 days (fraction); higher = more cells survive
Compound in the assay “Daporinad + Decitabine”: O=C(/C=C/c1cccnc1)NCCCCC1CCN(C(=O)c2ccccc2)CC1 [Daporinad] + Nc1ncn([C@H]2C[C@H](O)[C@@H](CO)O2)c(=O)n1 [Decitabine] (partner 2 µM)
Put shortly: (§1)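 Nuclei were stained with Hoechst during a one-step fixation (final 0.05% Triton X-100, 1% formaldehyde, 1 ug/ml Hoechst) carried out 5 days after dosing, then counted on 4× images. The cells, lung cancer lines in 1536-well plates, had been dosed by pin tool the day after seeding with one drug alone or a fixed anchor-drug dose plus five library-drug doses (not always all listed) in √10 steps. Relative viability is the nuclei count in treated wells divided by that in vehicle wells, and each value is the median of duplicate plates.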

Compound in the assay “R406 + Luminespib”: COc1cc(Nc2ncc(F)c(Nc3ccc4c(n3)NC(=O)C(C)(C)O4)n2)cc(OC)c1OC [R406] + CCNC(=O)c1noc(-c2cc(C(C)C)c(O)cc2O)c1-c1ccc(CN2CCOCC2)cc1 [Luminespib] (partner 0.01 µM)
Put shortly:
as §1

Compound in the assay “Daporinad + Linsitinib”: O=C(/C=C/c1cccnc1)NCCCCC1CCN(C(=O)c2ccccc2)CC1 [Daporinad] + C[C@]1(O)C[C@@H](c2nc(-c3ccc4ccc(-c5ccccc5)nc4c3)c3c(N)nccn32)C1 [Linsitinib] (partner 1 µM)
The method in brief: as §1

Compound in the assay “Daporinad + Trametinib”: O=C(/C=C/c1cccnc1)NCCCCC1CCN(C(=O)c2ccccc2)CC1 [Daporinad] + CC(=O)Nc1cccc(-n2c(=O)n(C3CC3)c(=O)c3c(Nc4ccc(I)cc4F)n(C)c(=O)c(C)c32)c1 [Trametinib] (partner 0.02 µM)
The method in brief: as §1

On to NCI-H520, for which the relative viability was found to be 0.558 with Daporinad + Decitabine (first compound 0.0005 µM); 0.513 with Daporinad + Decitabine (first compound 0.001581 µM); 0.283 with Daporinad + Decitabine (first compound 0.005 µM); 0.18 in the assay with Daporinad + Decitabine (first compound 0.01581 µM); 0.225 with R406 + Luminespib (first compound 0.08 µM); 0.25 in the assay with R406 + Luminespib (first compound 0.253 µM). The relative viability in the assay with R406 + Luminespib (first compound 0.8 µM) was 0.293; in the assay with R406 + Luminespib (first compound 2.53 µM), 0.271; in the assay with R406 + Luminespib (first compound 8 µM) it was 0.226; with Daporinad + Linsitinib (first compound 0.0005 µM) it was 0.87; in the assay with Daporinad + Linsitinib (first compound 0.001581 µM), 0.445; in the assay with Daporinad + Linsitinib (first compound 0.005 µM), 0.177. Besides, the relative viability came out at 0.149 in the assay with Daporinad + Linsitinib (first compound 0.01581 µM); 0.639 with Daporinad + Trametinib (first compound 0.0005 µM); 0.721 with Daporinad + Trametinib (first compound 0.001581 µM); 0.185 with Daporinad + Trametinib (first compound 0.005 µM); 0.136 with Daporinad + Trametinib (first compound 0.01581 µM).

With NCI-H596, the relative viability was 0.982 with Daporinad + Decitabine (first compound 0.0005 µM); 1 with Daporinad + Decitabine (first compound 0.001581 µM); 0.912 in the assay with Daporinad + Decitabine (first compound 0.005 µM); 0.636 with Daporinad + Decitabine (first compound 0.01581 µM); 0.817 in the assay with R406 + Luminespib (first compound 0.08 µM); 1.2 with R406 + Luminespib (first compound 0.253 µM). Moreover, the relative viability came to 1.27 with R406 + Luminespib (first compound 0.8 µM); 0.55 with R406 + Luminespib (first compound 2.53 µM); 0.132 in the assay with R406 + Luminespib (first compound 8 µM); 1.06 with Daporinad + Linsitinib (first compound 0.0005 µM); 1.15 in the assay with Daporinad + Linsitinib (first compound 0.001581 µM); 1.19 in the assay with Daporinad + Linsitinib (first compound 0.005 µM). Moreover, the relative viability is 0.477 with Daporinad + Linsitinib (first compound 0.01581 µM); 0.704 with Daporinad + Trametinib (first compound 0.0005 µM); 0.791 with Daporinad + Trametinib (first compound 0.001581 µM); 0.74 with Daporinad + Trametinib (first compound 0.005 µM); 0.48 with Daporinad + Trametinib (first compound 0.01581 µM).

As to NCI-H647, the relative viability with Daporinad + Decitabine (first compound 0.0005 µM) worked out at 0.37; with Daporinad + Decitabine (first compound 0.001581 µM), 0.425; with Daporinad + Decitabine (first compound 0.005 µM), 0.448; with Daporinad + Decitabine (first compound 0.01581 µM), 0.366; with R406 + Luminespib (first compound 0.08 µM), 0.235; in the assay with R406 + Luminespib (first compound 0.253 µM), 0.191. The relative viability is 0.348 with R406 + Luminespib (first compound 0.8 µM); 0.128 with R406 + Luminespib (first compound 2.53 µM); 0.123 in the assay with R406 + Luminespib (first compound 8 µM); 1.06 with Daporinad + Linsitinib (first compound 0.0005 µM); 1.07 with Daporinad + Linsitinib (first compound 0.001581 µM); 1.24 in the assay with Daporinad + Linsitinib (first compound 0.005 µM). For the same cell line, the relative viability in the assay with Daporinad + Linsitinib (first compound 0.01581 µM) is 0.983; with Daporinad + Trametinib (first compound 0.0005 µM), 0.456; with Daporinad + Trametinib (first compound 0.001581 µM), 0.572; with Daporinad + Trametinib (first compound 0.005 µM), 0.603; in the assay with Daporinad + Trametinib (first compound 0.01581 µM), 0.672.

As to NCI-H650, the relative viability in the assay with Daporinad + Decitabine (first compound 0.0005 µM) was 0.307; in the assay with Daporinad + Decitabine (first compound 0.001581 µM) it was 0.387; with Daporinad + Decitabine (first compound 0.005 µM), 0.351; with Daporinad + Decitabine (first compound 0.01581 µM), 0.323; with R406 + Luminespib (first compound 0.08 µM), 0.81; with R406 + Luminespib (first compound 0.253 µM) it was 0.878. Moreover, the relative viability with R406 + Luminespib (first compound 0.8 µM) came to 0.879; in the assay with R406 + Luminespib (first compound 2.53 µM), 0.294; with R406 + Luminespib (first compound 8 µM) it was 0.487; with Daporinad + Linsitinib (first compound 0.0005 µM), 0.832; in the assay with Daporinad + Linsitinib (first compound 0.001581 µM) it was 1.3; with Daporinad + Linsitinib (first compound 0.005 µM), 0.883. The relative viability was found to be 1.16 with Daporinad + Linsitinib (first compound 0.01581 µM); 1.05 with Daporinad + Trametinib (first compound 0.0005 µM); 1.14 in the assay with Daporinad + Trametinib (first compound 0.001581 µM); 1.01 with Daporinad + Trametinib (first compound 0.005 µM); 1.27 with Daporinad + Trametinib (first compound 0.01581 µM).

With NCI-H661, the relative viability came to 0.615 with Daporinad + Decitabine (first compound 0.0005 µM); 0.625 in the assay with Daporinad + Decitabine (first compound 0.001581 µM); 0.416 in the assay with Daporinad + Decitabine (first compound 0.005 µM); 0.362 with Daporinad + Decitabine (first compound 0.01581 µM); 0.887 with R406 + Luminespib (first compound 0.08 µM); 0.956 with R406 + Luminespib (first compound 0.253 µM). Besides, the relative viability with R406 + Luminespib (first compound 0.8 µM) turned out to be 0.827; in the assay with R406 + Luminespib (first compound 2.53 µM) it was 0.977; with R406 + Luminespib (first compound 8 µM), 0.862; with Daporinad + Linsitinib (first compound 0.0005 µM) it was 0.488; with Daporinad + Linsitinib (first compound 0.001581 µM) it was 0.555; with Daporinad + Linsitinib (first compound 0.005 µM), 0.561. Further, the relative viability in the assay with Daporinad + Linsitinib (first compound 0.01581 µM) was 0.405; in the assay with Daporinad + Trametinib (first compound 0.0005 µM), 0.665; with Daporinad + Trametinib (first compound 0.001581 µM), 0.746; with Daporinad + Trametinib (first compound 0.005 µM), 0.52; with Daporinad + Trametinib (first compound 0.01581 µM), 0.376.

In the case of NCI-H727, the relative viability with Daporinad + Decitabine (first compound 0.0005 µM) is 0.822; in the assay with Daporinad + Decitabine (first compound 0.001581 µM), 0.903; with Daporinad + Decitabine (first compound 0.005 µM) it was 1; in the assay with Daporinad + Decitabine (first compound 0.01581 µM) it was 0.67; in the assay with R406 + Luminespib (first compound 0.08 µM), 0.351; with R406 + Luminespib (first compound 0.253 µM), 0.521. The relative viability turned out to be 0.345 in the assay with R406 + Luminespib (first compound 0.8 µM); 0.323 in the assay with R406 + Luminespib (first compound 8 µM); 0.282 with Daporinad + Linsitinib (first compound 0.0005 µM); 0.337 with Daporinad + Linsitinib (first compound 0.001581 µM); 0.244 with Daporinad + Linsitinib (first compound 0.005 µM); 0.261 with Daporinad + Linsitinib (first compound 0.01581 µM). Besides, the relative viability with Daporinad + Trametinib (first compound 0.0005 µM) was 0.398; in the assay with Daporinad + Trametinib (first compound 0.001581 µM) it was 0.453; in the assay with Daporinad + Trametinib (first compound 0.005 µM) it was 0.375; with Daporinad + Trametinib (first compound 0.01581 µM), 0.379.

As for NCI-H838, the relative viability with Daporinad + Decitabine (first compound 0.0005 µM) amounted to 0.44; in the assay with Daporinad + Decitabine (first compound 0.001581 µM) it was 0.518; with Daporinad + Decitabine (first compound 0.005 µM), 0.358; with Daporinad + Decitabine (first compound 0.01581 µM), 0.303; with R406 + Luminespib (first compound 0.08 µM), 0.277; with R406 + Luminespib (first compound 0.253 µM), 0.319. The relative viability with R406 + Luminespib (first compound 0.8 µM) is 0.176; in the assay with R406 + Luminespib (first compound 2.53 µM), 0.234; with R406 + Luminespib (first compound 8 µM), 0.236; with Daporinad + Linsitinib (first compound 0.0005 µM) it was 1.17; in the assay with Daporinad + Linsitinib (first compound 0.001581 µM), 1.14; with Daporinad + Linsitinib (first compound 0.005 µM) it was 0.832. Moreover, the relative viability in the assay with Daporinad + Linsitinib (first compound 0.01581 µM) is 0.558; in the assay with Daporinad + Trametinib (first compound 0.0005 µM) it was 0.496; with Daporinad + Trametinib (first compound 0.001581 µM), 0.637; with Daporinad + Trametinib (first compound 0.005 µM) it was 0.542; with Daporinad + Trametinib (first compound 0.01581 µM), 0.265.

As for NCI-H1355, the relative viability in the assay with Daporinad + Decitabine (first compound 0.0005 µM) amounted to 0.373; in the assay with Daporinad + Decitabine (first compound 0.001581 µM), 0.356; in the assay with Daporinad + Decitabine (first compound 0.005 µM) it was 0.323; with Daporinad + Decitabine (first compound 0.01581 µM), 0.369; with R406 + Luminespib (first compound 0.08 µM), 0.713; with R406 + Luminespib (first compound 0.253 µM), 0.804. The relative viability with R406 + Luminespib (first compound 0.8 µM) turned out to be 0.664; in the assay with R406 + Luminespib (first compound 2.53 µM), 0.497; in the assay with R406 + Luminespib (first compound 8 µM), 0.39; with Daporinad + Linsitinib (first compound 0.0005 µM) it was 0.798; with Daporinad + Linsitinib (first compound 0.001581 µM) it was 1.02; with Daporinad + Linsitinib (first compound 0.005 µM), 0.9. In addition, the relative viability with Daporinad + Linsitinib (first compound 0.01581 µM) is 0.876; in the assay with Daporinad + Trametinib (first compound 0.0005 µM), 0.409; with Daporinad + Trametinib (first compound 0.001581 µM), 0.465; in the assay with Daporinad + Trametinib (first compound 0.005 µM), 0.298; with Daporinad + Trametinib (first compound 0.01581 µM), 0.557.

The values are drawn from the supplement of paper PMC10307832.
